One data set deals with P. multocida 46572. Nature of the data set: In vivo mouse lung infection challenge model (murine efficacy). Conditions: for % Survival: 20 mg/kg subcutaneous, harmonized survival relative to vehicle and M9 controls, study ended Day 10. As for the experimental part:
The challenge organism was P. multocida 46572. Target challenge concentration was 5×10^2 CFU/mouse. Isolated colonies from overnight growth (37° C. with 5% CO2) on trypticase soy agar (TSA II) blood plates were transferred to room temperature Brain Heart Infusion Broth (BHIB). The broth culture was incubated 3.5-4 hours to approximately mid-log phase of growth, as measured by forward light scatter at 600 nm (OD600, 0.200). The culture was centrifuged to collect the bacterial pellet. The pellet was re-suspended in BHIB and adjusted to provide an approximate concentration of 2.7 log^10 colony forming units (CFU) in 0.04 mL at the highest concentration. The challenge inoculum concentration was confirmed by serial dilutions of the inoculum for CFU enumeration. On Day −5, CD-1 female mice were received. Mice were given standard rodent diet and water ad libitum. On Day 0, bacterial inoculum (0.04 mL) was administered to each mouse (n=36) intranasally. Compounds of the invention were dosed at 20 mg/kg (0.1 mL) in a buffered (˜pH 5.4) propylene glycol, monothioglycerol and water solution by subcutaneous injection. Animals were observed from Days 1-10. The study was terminated on Day 10. In addition, some treatment groups were sampled at 6, 24, and 48 hours post bacterial challenge for RNA sequence analysis of lung tissue.
The murine efficacy model (P. multocida challenge) was optimized, and the treatment group size was powered to be able to observe statistically significant improvement of survival to expected ranges for immunomodulatory compounds. The experimental design was a randomized complete block design. Mice were individually identified and treatment groups comingled within a cage, with every treatment group equally represented across cages. Mortality was the primary variable. Mortality data was analyzed using a generalized mixed model with fixed effect of treatment and random effect of block. Survival time was also analyzed using the SAS PHREG (survival analysis) procedure to examine whether there were significant differences between treatment groups and the control group. Numerous compounds of the invention and M9 (positive control) were tested in this model at a dose of 20 mg/kg (Table 3). Typical percent survival for no treatment control is in the range of 0-20% based on study to study variation in challenge inoculum and rate of infection. […] Mouse survival for M9 was about 90-100%, further supporting its residual antibacterial properties against the bacterial strain. Harmonized survival accounts for % survival relative to vehicle (“−” control) and M9 (“+” control)) survival data (Table 3).

For the next data set, the system named is E. coli. Nature of the data set: MIC, E. coli. Particulars: Escherichia coli.
The next data set relates to P. multocida. Description: MIC, P. multocida. Particulars: Pasteurella multocida.
The subject of a further data set is S. aureus. Nature of the data set: MIC, S. aureus. Particulars: Staphylococcus aureus.
The test system of another data set is M. haemolytica. Description: MIC, M. haemolytica. Conditions: Mannheimia haemolytica.
For another data set, the system named is IL-1β. Nature of the data set: Bovine whole blood assay, IL-1β.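 Note: compound concentration at which rising IL-1β release signals cytotoxicity.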 In kind it is cell-based. Particulars: overstimulation of IL-1β, perceived cellular toxicity concentration. Here is the method: (§1) (protected from light) for 30 minutes.
The next data set relates to IL-6. Nature of the data set: Bovine whole blood assay, IL-6. In kind it is cell-based. Conditions: Bos taurus, fresh whole bovine blood, LPS 1 μg/mL. As for the experimental part:
as §1

A further data set relates to TNF-α. Nature of the data set: Bovine whole blood assay, LPS-induced TNF-α. The class given is cell-based. Particulars: Bos taurus, fresh whole bovine blood, LPS 1 μg/mL. Here is the method: as §1
Data set [1] has as its system BRD pathogens, M. haemolytica and P. multocida. Description: MIC screening panel, BRD pathogens (CLSI broth micro-dilution). Conditions: read-out: MIC flag (*) at Ex #.
Setting [2] is: P. multocida 46572, murine efficacy challenge strain.
Setting [3] is: M. haemolytica 46571, bovine efficacy challenge strain.

Where only a bound is given, the exact number is not on record here.

As to `CC[C@H]1OC(=O)[C@H](C)[C@@H](O[C@H]2C[C@@](C)(OC)[C@](O)(CNCCOC)[C@H](C)O2)[C@H](C)[C@@H](O[C@@H]2O[C@H](C)C[C@H]3[C@H]2OC(C(F)(F)F)N3C)[C@](C)(O)C[C@@H](C)CN[C@H](C)[C@@H](O)[C@]1(C)O` (stereo partly drawn) [Example A-2, (2R,3S,4R,5R,8R,10R,11R,12S,13S,14R)-11-(((3aR,4S,6R,7aS)-1,6-dimethyl-2-(trifluoromethyl)hexahydro-2H-pyrano[4,3-d]oxazol-4-yl)oxy)-2-ethyl-3,4,10-trihydroxy-13-(((2R,4R,5S,6S)-5-hydroxy-4-methoxy-5-(((2-methoxyethyl)amino)methyl)-4,6-dimethyltetrahydro-2H-pyran-2-yl)oxy)-3,5,8,10,12,14-hexamethyl-1-oxa-6-azacyclopentadecan-15-one], the “% Survival” value with P. multocida 46572 came to 18%.

For `CC[C@H]1OC(=O)[C@H](C)[C@@H](O[C@H]2C[C@@](C)(OC)[C@](O)(CNC3CCC3)[C@H](C)O2)[C@H](C)[C@@H](O[C@@H]2O[C@H](C)C[C@H]3[C@H]2OC(C(F)(F)F)N3C)[C@](C)(O)C[C@@H](C)CN[C@H](C)[C@@H](O)[C@]1(C)O` (stereo partly drawn) [Example A-7, (2R,3S,4R,5R,8R,10R,11R,12S,13S,14R)-13-(((2R,4R,5S,6S)-5-((cyclobutylamino)methyl)-5-hydroxy-4-methoxy-4,6-dimethyltetrahydro-2H-pyran-2-yl)oxy)-11-(((3aR,4S,6R,7aS)-1,6-dimethyl-2-(trifluoromethyl)hexahydro-2H-pyrano[4,3-d]oxazol-4-yl)oxy)-2-ethyl-3,4,10-trihydroxy-3,5,8,10,12,14-hexamethyl-1-oxa-6-azacyclopentadecan-15-one], the minimum inhibitory concentration (MIC) against E. coli (E. coli 25922), against E. coli (E. coli W3110), with P. multocida (P. multocida 43137), with P. multocida (setting [2]), in the data set with S. aureus and in the data set on M. haemolytica (M. haemolytica 12726) was more than 64 µg/mL throughout. In addition, the MIC in the data set on M. haemolytica (M. haemolytica 33396) and in the data set with M. haemolytica (setting [3]) was more than 64 µg/mL throughout.

Consider `CC[C@H]1OC(=O)[C@H](C)[C@@H](O[C@H]2C[C@@](C)(OC)[C@](O)(CNCCN3CCCC3=O)[C@H](C)O2)[C@H](C)[C@@H](O[C@@H]2O[C@H](C)C[C@H]3[C@H]2OC(C(F)(F)F)N3C)[C@](C)(O)C[C@@H](C)CN[C@H](C)[C@@H](O)[C@]1(C)O` (stereo partly drawn) [Example A-12, (2R,3S,4R,5R,8R,10R,11R,12S,13S,14R)-11-(((3aR,4S,6R,7aS)-1,6-dimethyl-2-(trifluoromethyl)hexahydro-2H-pyrano[4,3-d]oxazol-4-yl)oxy)-2-ethyl-3,4,10-trihydroxy-13-(((2R,4R,5S,6S)-5-hydroxy-4-methoxy-4,6-dimethyl-5-(((2-(2-oxopyrrolidin-1-yl)ethyl)amino)methyl)tetrahydro-2H-pyran-2-yl)oxy)-3,5,8,10,12,14-hexamethyl-1-oxa-6-azacyclopentadecan-15-one], for which the MIC against E. coli (E. coli 25922), in the data set with E. coli (E. coli W3110), in the data set with P. multocida (P. multocida 43137), against P. multocida (setting [2]), in the data set on S. aureus and with M. haemolytica (M. haemolytica 12726) was more than 64 µg/mL throughout. Also, the MIC against M. haemolytica (M. haemolytica 33396) and against M. haemolytica (setting [3]) was more than 64 µg/mL throughout. In the data set with IL-1β, the “IL-1β OS of LPS” value is 40 µM. The results for the IC50 in the data set with IL-6 and in the data set with TNF-α were 24 µM and 45 µM, respectively.

As to `CCCNC[C@]1(O)[C@H](C)O[C@@H](O[C@H]2[C@H](C)[C@@H](O[C@@H]3O[C@H](C)C[C@H]4[C@H]3OC(C(F)(F)F)N4CC(C)C)[C@](C)(O)C[C@@H](C)CN[C@H](C)[C@@H](O)[C@](C)(O)[C@@H](CC)OC(=O)[C@@H]2C)C[C@@]1(C)OC` (stereo partly drawn) [Example A-27, (2R,3S,4R,5R,8R,10R,11R,12S,13S,14R)-2-ethyl-3,4,10-trihydroxy-13-(((2R,4R,5S,6S)-5-hydroxy-4-methoxy-4,6-dimethyl-5-((propylamino)methyl)tetrahydro-2H-pyran-2-yl)oxy)-11-(((3aR,4S,6R,7aS)-1-isobutyl-6-methyl-2-(trifluoromethyl)hexahydro-2H-pyrano[4,3-d]oxazol-4-yl)oxy)-3,5,8,10,12,14-hexamethyl-1-oxa-6-azacyclopentadecan-15-one], in the data set with IL-1β, the “IL-1β OS of LPS” value was determined as 2 µM. Moreover, the results for the 50% inhibitory concentration (IC50) with IL-6 and with TNF-α were 1 µM and 3 µM, respectively. In data set [1], the minimum inhibitory concentration (MIC) is less than 64 µg/mL.

For the compound `CCCNC[C@]1(O)[C@H](C)O[C@@H](O[C@H]2[C@H](C)[C@@H](O[C@@H]3O[C@H](C)C[C@H]4[C@H]3OC(C(F)(F)F)N4Cc3ccccc3)[C@](C)(O)C[C@@H](C)CN[C@H](C)[C@@H](O)[C@](C)(O)[C@@H](CC)OC(=O)[C@@H]2C)C[C@@]1(C)OC` (stereo partly drawn) [Example A-28, (2R,3S,4R,5R,8R,10R,11R,12S,13S,14R)-11-(((3aR,4S,6R,7aS)-1-benzyl-6-methyl-2-(trifluoromethyl)hexahydro-2H-pyrano[4,3-d]oxazol-4-yl)oxy)-2-ethyl-3,4,10-trihydroxy-13-(((2R,4R,5S,6S)-5-hydroxy-4-methoxy-4,6-dimethyl-5-((propylamino)methyl)tetrahydro-2H-pyran-2-yl)oxy)-3,5,8,10,12,14-hexamethyl-1-oxa-6-azacyclopentadecan-15-one], the “IL-1β OS of LPS” value in the data set on IL-1β was more than 250 µM. The IC50 was 12 µM with IL-6 and 8 µM in the data set on TNF-α. For the same compound, the MIC in data set [1] was less than 64 µg/mL.

As for `CC[C@H]1OC(=O)[C@H](C)[C@@H](O[C@H]2C[C@@](C)(OC)[C@](O)(CN3CCOCC3)[C@H](C)O2)[C@H](C)[C@@H](O[C@@H]2O[C@H](C)C[C@H]3[C@H]2OC(C(F)(F)F)N3C)[C@](C)(O)C[C@@H](C)CN[C@H](C)[C@@H](O)[C@]1(C)O` (stereo partly drawn) [Example B-1, (2R,3S,4R,5R,8R,10R,11R,12S,13S,14R)-11-(((3aR,4S,6R,7aS)-1,6-dimethyl-2-(trifluoromethyl)hexahydro-2H-pyrano[4,3-d]oxazol-4-yl)oxy)-2-ethyl-3,4,10-trihydroxy-13-(((2R,4R,5S,6S)-5-hydroxy-4-methoxy-4,6-dimethyl-5-(morpholinomethyl)tetrahydro-2H-pyran-2-yl)oxy)-3,5,8,10,12,14-hexamethyl-1-oxa-6-azacyclopentadecan-15-one], the MIC in the data set with E. coli (E. coli 25922), with E. coli (E. coli W3110), with P. multocida (P. multocida 43137), against P. multocida (setting [2]), with S. aureus and in the data set with M. haemolytica (M. haemolytica 12726) was more than 64 µg/mL in each case. For the same compound, the MIC against M. haemolytica (M. haemolytica 33396) and in the data set with M. haemolytica (setting [3]) was more than 64 µg/mL in each case. Also, the “IL-1β OS of LPS” value in the data set on IL-1β is 13 µM. In addition, in the data set with TNF-α, inhibition was half-maximal at 10 µM (IC50).

On to `CC[C@H]1OC(=O)[C@H](C)[C@@H](O[C@H]2C[C@@](C)(OC)[C@](O)(CN3CCN(C)CC3)[C@H](C)O2)[C@H](C)[C@@H](O[C@@H]2O[C@H](C)C[C@H]3[C@H]2OC(C(F)(F)F)N3C)[C@](C)(O)C[C@@H](C)CN[C@H](C)[C@@H](O)[C@]1(C)O` (stereo partly drawn) [Example B-2, (2R,3S,4R,5R,8R,10R,11R,12S,13S,14R)-11-(((3aR,4S,6R,7aS)-1,6-dimethyl-2-(trifluoromethyl)hexahydro-2H-pyrano[4,3-d]oxazol-4-yl)oxy)-2-ethyl-3,4,10-trihydroxy-13-(((2R,4R,5S,6S)-5-hydroxy-4-methoxy-4,6-dimethyl-5-((4-methylpiperazin-1-yl)methyl)tetrahydro-2H-pyran-2-yl)oxy)-3,5,8,10,12,14-hexamethyl-1-oxa-6-azacyclopentadecan-15-one], for which, in the data set on IL-1β, the “IL-1β OS of LPS” value is 5 µM. The same compound had a 50% inhibitory concentration (IC50) in the data set with TNF-α of 5 µM. Also, in the data set with P. multocida 46572, the “% Survival” value is recorded as 47%. For the same compound, the “clinical efficacy in P. multocida infection in mice” value with P. multocida 46572 (mouse, in vivo) is “clinically efficacious”.

Values taken from patent US12390440B2, “Immunomodulating trifluoromethyl-aminal azalides” (Zoetis Services LLC, priority 2020, dated 2025).
